Experimental data: patent publication US9615503B2, “Method for cultivating sugar cane” (BASF SE, priority 2011, dated 2017)

Tested on: sugar cane bud discs
Test: Survival of sugar cane seedlings grown from treated bud discs (greenhouse, then acclimatization)
Type: in vivo
Settings: for Number of surviving seedlings: of 648 planted buds per treatment, bud discs immersed 10 seconds in aqueous solution (pyraclostrobin 1 g/l, fipronil 0.8 g/l, fluxapyroxade 1.2 g/l, thiamethoxam 1.5 g/l), counted after 30 to 45 days greenhouse plus 15 days acclimatization, untreated 211; for Increase of survival rate [%]: relative to untreated buds (211 of 648 surviving), same treatment and concentrations as the number of surviving seedlings
Description: On an area of 0.1 hectares where sugar cane plants were growing with a distance between the rows of 1.5 m, the top part of the 8 months old sugar cane plants was removed by chopping off with a machete in a height of approximately 2 to 2.5 m. The removed top part was discarded. The below, remaining stalks were removed from the field by cutting them off closely above the ground. The stalks were then cut longitudinally into halves in such a manner that the buds were approximately centralized on the halves. From the stalk halves discs of ca. 2 cm of diameter each containing a bud and a part of the respective node were punched off with a punching machine. For each treatment, 648 bud discs were immersed for 10 seconds into an aqueous solution containing either pyraclostrobin (1 g/l; used as the commercial product Comet® of a concentration of 250 g/l of pyraclostrobin) or fipronil (0.8 g/l; used as the commercial product Regent® of a concentration of 800 g/kg of fipronil) or fluxapyroxade (1.2 g/l; used as the commercial product BAS 700 04F of a concentration of 300 g/l) or thiamethoxam (1.5 g/l; used as the commercial product Actara® 250 WG of a concentration of […]). The treated buds were then each placed in individual pots filled with humid coconut fibers. 648 bud discs stayed untreated for comparative reasons and were directly placed in individual pots filled with humid coconut fibers. The pots were placed in a greenhouse, and seedlings were grown from the planted bud discs at 25 to 35° C. and 70 to 80% humidity. While in the greenhouse, the buds/seedlings were watered sufficiently. 30 to 45 days after having been placed in the greenhouse, the surviving seedlings were transferred in an acclimatization area and kept for 15 days. Thereafter they were counted and then transplanted to a field.

Structure (SMILES): N#Cc1nn(-c2c(Cl)cc(C(F)(F)F)cc2Cl)c(N)c1[S+]([O-])C(F)(F)F (centres unmarked) [Fipronil, fipronil]
- Number of surviving seedlings: 236
- Increase of survival rate [%]: 11.8%

Structure (SMILES): Cn1cc(C(=O)Nc2ccccc2-c2cc(F)c(F)c(F)c2)c(C(F)F)n1 [Fluxapyroxade, N-(3′,4′,5′-trifluorobiphenyl-2-yl)-3-difluoromethyl-1-methyl-1H-pyrazole-4-carboxamide]
- Number of surviving seedlings: 248
- Increase of survival rate [%]: 17.5%

Structure (SMILES): COC(=O)N(OC)c1ccccc1COc1ccn(-c2ccc(Cl)cc2)n1 [Pyraclostrobin, pyraclostrobin]
- Number of surviving seedlings: 391
- Increase of survival rate [%]: 85.3%

Structure (SMILES): CN1COCN(Cc2cnc(Cl)s2)/C1=N\[N+](=O)[O-] [Thiamethoxam, thiamethoxam]
- Number of surviving seedlings: 225
- Increase of survival rate [%]: 6.6%
